Measured values reported in patent publication US10196386B2, “Compounds having muscarinic receptor antagonist and beta2 adrenergic receptor agonist activity” (priority 2016, dated 2019).
pIC50: −log10 of the molar value.

Columns and labels:
[1] = biological target: T1, Human β2 adrenoceptor (Homo sapiens, UniProt P07550); experiment: β2 adrenoceptor radioligand binding assay
T1 construct: purchased Perkin Elmer
Method in brief: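 Human β2 receptor membranes incubated 1 h at room temperature with 0.3 nM [125I]cyanopindolol and compound in pH 7.4 HEPES buffer (0.5% DMSO); 2 μM s-propranolol defined non-specific binding. Bound label counted after filtration; IC50 from competition curves, converted to Ki via Cheng–Prusoff.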

[2] = biological target: T2, Human M3 receptor (Homo sapiens, UniProt P20309); experiment: biochemical; type: binding; conditions: read-out: M3 Range
T2 construct: purchased Perkin Elmer
T2 sequence (P20309 whole entry): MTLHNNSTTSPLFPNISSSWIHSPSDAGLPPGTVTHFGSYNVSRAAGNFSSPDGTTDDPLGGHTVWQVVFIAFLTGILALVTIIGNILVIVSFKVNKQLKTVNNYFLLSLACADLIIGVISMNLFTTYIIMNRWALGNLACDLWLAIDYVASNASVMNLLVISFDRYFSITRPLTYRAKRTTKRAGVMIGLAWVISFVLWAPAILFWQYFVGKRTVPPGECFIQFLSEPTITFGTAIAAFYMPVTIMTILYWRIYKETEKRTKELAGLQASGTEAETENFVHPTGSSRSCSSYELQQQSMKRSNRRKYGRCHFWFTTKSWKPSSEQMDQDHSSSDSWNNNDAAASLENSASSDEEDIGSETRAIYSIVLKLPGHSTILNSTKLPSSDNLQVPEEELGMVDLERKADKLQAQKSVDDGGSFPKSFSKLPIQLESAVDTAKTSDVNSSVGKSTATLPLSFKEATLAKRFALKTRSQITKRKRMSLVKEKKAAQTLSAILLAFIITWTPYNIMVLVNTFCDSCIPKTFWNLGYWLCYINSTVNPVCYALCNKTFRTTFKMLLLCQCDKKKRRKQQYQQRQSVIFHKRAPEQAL

T1 sequence (P07550 whole entry): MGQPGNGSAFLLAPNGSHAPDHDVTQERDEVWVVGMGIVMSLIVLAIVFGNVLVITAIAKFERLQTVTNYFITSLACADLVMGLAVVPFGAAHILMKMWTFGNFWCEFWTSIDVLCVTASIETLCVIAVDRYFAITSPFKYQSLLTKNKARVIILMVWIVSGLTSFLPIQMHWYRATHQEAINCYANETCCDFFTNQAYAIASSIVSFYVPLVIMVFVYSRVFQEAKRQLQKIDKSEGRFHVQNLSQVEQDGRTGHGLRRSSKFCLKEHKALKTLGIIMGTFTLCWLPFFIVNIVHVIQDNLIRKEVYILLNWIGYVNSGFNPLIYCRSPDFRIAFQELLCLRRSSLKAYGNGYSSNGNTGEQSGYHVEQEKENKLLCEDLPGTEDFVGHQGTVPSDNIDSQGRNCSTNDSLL

Structure (SMILES) | pIC50 [1] | pIC50 [2]
O=C(c1cc(-c2cccc([C@](O)(C(=O)OCC3CCN(Cc4ccccc4)CC3)c3ccccc3)c2)ccn1)N1CCC(CNC[C@H](O)c2ccc(O)c3[nH]c(=O)ccc23)CC1 [Compound 6B, (1-Benzylpiperidin-4-yl)methyl (S)-2-hydroxy-2-(3-(2-(4-((((R)-2-hydroxy-2-(8-hydroxy-2-oxo-1,2-dihydroquinolin-5-yl)ethyl)amino)methyl)piperidine-1-carbonyl)pyridin-4-yl)phenyl)-2-phenylacetate] | > 9.52 | 8.52 to 9.52
O=C(c1ccc(-c2cccc([C@](O)(C(=O)OCC3CCN(Cc4ccccc4)CC3)c3ccccc3)c2)cn1)N1CCC(CNC[C@H](O)c2ccc(O)c3[nH]c(=O)ccc23)CC1 [Compound 6C, (1-Benzylpiperidin-4-yl)methyl (S)-2-hydroxy-2-(3-(6-(4-((((R)-2-hydroxy-2-(8-hydroxy-2-oxo-1,2-dihydroquinolin-5-yl)ethyl)amino)methyl)piperidine-1-carbonyl)pyridin-3-yl)phenyl)-2-phenylacetate] | > 9.52 | > 9.52
O=C(c1ccc(-c2cccc([C@](O)(C(=O)OCC3CCN(Cc4ccccc4)CC3)c3ccccc3)c2)nc1)N1CCC(CNC[C@H](O)c2ccc(O)c3[nH]c(=O)ccc23)CC1 [Compound 6D, (1-Benzylpiperidin-4-yl)methyl (S)-2-hydroxy-2-(3-(5-(4-((((R)-2-hydroxy-2-(8-hydroxy-2-oxo-1,2-dihydroquinolin-5-yl)ethyl)amino)methyl)piperidine-1-carbonyl)pyridin-2-yl)phenyl)-2-phenylacetate] | > 9.52 | 8.52 to 9.52
O=C(c1cncc(-c2cccc([C@](O)(C(=O)OCC3CCN(Cc4ccccc4)CC3)c3ccccc3)c2)c1)N1CCC(CNC[C@H](O)c2ccc(O)c3[nH]c(=O)ccc23)CC1 [Compound 6E, (1-Benzylpiperidin-4-yl)methyl (S)-2-hydroxy-2-(3-(5-(4-((((R)-2-hydroxy-2-(8-hydroxy-2-oxo-1,2-dihydroquinolin-5-yl)ethyl)amino)methyl)piperidine-1-carbonyl)pyridin-3-yl)phenyl)-2-phenylacetate] | > 9.52 | 8.52 to 9.52
O=C(c1cccc(-c2cccc([C@](O)(C(=O)OCC3CCN(Cc4ccccc4)CC3)c3ccccc3)c2)n1)N1CCC(CNC[C@H](O)c2ccc(O)c3[nH]c(=O)ccc23)CC1 [Compound 6F, (1-Benzylpiperidin-4-yl)methyl (S)-2-hydroxy-2-(3-(6-(4-((((R)-2-hydroxy-2-(8-hydroxy-2-oxo-1,2-dihydroquinolin-5-yl)ethyl)amino)methyl)piperidine-1-carbonyl)pyridin-2-yl)phenyl)-2-phenylacetate] | 8.52 to 9.52 | 8.52 to 9.52
O=C(c1ccc(CNC[C@H](O)c2ccc(O)c3[nH]c(=O)ccc23)cc1)N1CCC(c2cccc([C@](O)(C(=O)OCC3CCN(Cc4ccccc4)CC3)c3ccccc3)c2)CC1 [Compound 7, (1-Benzylpiperidin-4-yl)methyl (S)-2-hydroxy-2-(3-(1-(4-((((R)-2-hydroxy-2-(8-hydroxy-2-oxo-1,2-dihydroquinolin-5-yl)ethyl)amino)methyl)benzoyl)piperidin-4-yl)phenyl)-2-phenylacetate] | 8.52 to 9.52 | 8.52 to 9.52
COc1cc(C(=O)N2CCC(c3cccc([C@](O)(C(=O)OCC4CCN(Cc5ccccc5)CC4)c4ccccc4)c3)CC2)ccc1CNC[C@H](O)c1ccc(O)c2[nH]c(=O)ccc12 [Compound 7A, (1-Benzylpiperidin-4-yl)methyl (S)-2-hydroxy-2-(3-(1-(4-((((R)-2-hydroxy-2-(8-hydroxy-2-oxo-1,2-dihydroquinolin-5-yl)ethyl)amino)methyl)-3-methoxybenzoyl)piperidin-4-yl)phenyl)-2-phenylacetate] | 8.52 to 9.52 | 8.52 to 9.52
COc1cc(CNC[C@H](O)c2ccc(O)c3[nH]c(=O)ccc23)ccc1C(=O)N1CCC(c2cccc([C@](O)(C(=O)OCC3CCN(Cc4ccccc4)CC3)c3ccccc3)c2)CC1 [Compound 7B, (1-Benzylpiperidin-4-yl)methyl (S)-2-hydroxy-2-(3-(1-(4-((((R)-2-hydroxy-2-(8-hydroxy-2-oxo-1,2-dihydroquinolin-5-yl)ethyl)amino)methyl)-2-methoxybenzoyl)piperidin-4-yl)phenyl)-2-phenylacetate] | < 8.52 | 8.52 to 9.52
O=C(c1ccc(CCNC[C@H](O)c2ccc(O)c3[nH]c(=O)ccc23)cc1)N1CCC(c2cccc([C@](O)(C(=O)OCC3CCN(Cc4ccccc4)CC3)c3ccccc3)c2)CC1 [Compound 7C, (1-Benzylpiperidin-4-yl)methyl (S)-2-hydroxy-2-(3-(1-(4-(2-(((R)-2-hydroxy-2-(8-hydroxy-2-oxo-1,2-dihydroquinolin-5-yl)ethyl)amino)ethyl)benzoyl)piperidin-4-yl)phenyl)-2-phenylacetate] | > 9.52 | 8.52 to 9.52
O=C(c1ccc2c(c1)CC(NC[C@H](O)c1ccc(O)c3[nH]c(=O)ccc13)C2)N1CCC(c2cccc([C@](O)(C(=O)OCC3CCN(Cc4ccccc4)CC3)c3ccccc3)c2)CC1 (stereo partly drawn) [Compound 7D, (1-Benzylpiperidin-4-yl)methyl (2S)-2-hydroxy-2-(3-(1-(2-(((R)-2-hydroxy-2-(8-hydroxy-2-oxo-1,2-dihydroquinolin-5-yl)ethyl)amino)-2,3-dihydro-1H-indene-5-carbonyl)piperidin-4-yl)phenyl)-2-phenylacetate] | 8.52 to 9.52 | > 9.52
O=C(NCC(=O)N1CC=C(c2cccc([C@](O)(C(=O)OCC3CCN(Cc4ccccc4)CC3)c3ccccc3)c2)CC1)c1ccc(CCNC[C@H](O)c2ccc(O)c3[nH]c(=O)ccc23)cc1 [Compound 8, (1-Benzylpiperidin-4-yl)methyl (S)-2-hydroxy-2-(3-(1-((4-(2-(((R)-2-hydroxy-2-(8-hydroxy-2-oxo-1,2-dihydroquinolin-5-yl)ethyl)amino)ethyl)benzoyl)-glycyl)-1,2,3,6-tetrahydropyridin-4-yl)phenyl)-2-phenylacetate] | > 9.52 | > 9.52
COc1cc(CNC[C@H](O)c2ccc(O)c3[nH]c(=O)ccc23)ccc1C(=O)NCC(=O)N1CC=C(c2cccc([C@](O)(C(=O)OCC3CCN(Cc4ccccc4)CC3)c3ccccc3)c2)CC1 [Compound 8A, (1-Benzylpiperidin-4-yl)methyl (S)-2-hydroxy-2-(3-(1-((4-((((R)-2-hydroxy-2-(8-hydroxy-2-oxo-1,2-dihydroquinolin-5-yl)ethyl)amino)methyl)-2-methoxybenzoyl)glycyl)-1,2,3,6-tetrahydropyridin-4-yl)phenyl)-2-phenylacetate] | > 9.52 | 8.52 to 9.52
C[C@@H](NC(=O)c1ccc(CNC[C@H](O)c2ccc(O)c3[nH]c(=O)ccc23)cc1)C(=O)N1CC=C(c2cccc([C@](O)(C(=O)OCC3CCN(Cc4ccccc4)CC3)c3ccccc3)c2)CC1 [Compound 8B, (1-Benzylpiperidin-4-yl)methyl (S)-2-hydroxy-2-(3-(1-((4-((((R)-2-hydroxy-2-(8-hydroxy-2-oxo-1,2-dihydroquinolin-5-yl)ethyl)amino)methyl)benzoyl)-D-alanyl)-1,2,3,6-tetrahydropyridin-4-yl)phenyl)-2-phenylacetate] | 8.52 to 9.52 | 8.52 to 9.52
C[C@H](NC(=O)c1ccc(CNC[C@H](O)c2ccc(O)c3[nH]c(=O)ccc23)cc1)C(=O)N1CC=C(c2cccc([C@](O)(C(=O)OCC3CCN(Cc4ccccc4)CC3)c3ccccc3)c2)CC1 [Compound 8C, (1-Benzylpiperidin-4-yl)methyl (S)-2-hydroxy-2-(3-(1-((4-((((R)-2-hydroxy-2-(8-hydroxy-2-oxo-1,2-dihydroquinolin-5-yl)ethyl)amino)methyl)benzoyl)-L-alanyl)-1,2,3,6-tetrahydropyridin-4-yl)phenyl)-2-phenylacetate] | 8.52 to 9.52 | 8.52 to 9.52
O=C(NCC(=O)N1CC=C(c2cccc([C@](O)(C(=O)OCC3CCN(Cc4ccccc4)CC3)c3ccccc3)c2)CC1)c1ccc(CNC[C@H](O)c2ccc(O)c3[nH]c(=O)ccc23)cc1 [Compound 8D, (1-Benzylpiperidin-4-yl)methyl (S)-2-hydroxy-2-(3-(1-((4-((((R)-2-hydroxy-2-(8-hydroxy-2-oxo-1,2-dihydroquinolin-5-yl)ethyl)amino)methyl)-benzoyl)glycyl)-1,2,3,6-tetrahydropyridin-4-yl)phenyl)-2-phenylacetate] | > 9.52 | 8.52 to 9.52
COc1cc(C(=O)NCC(=O)N2CC=C(c3cccc([C@](O)(C(=O)OCC4CCN(Cc5ccccc5)CC4)c4ccccc4)c3)CC2)ccc1CNC[C@H](O)c1ccc(O)c2[nH]c(=O)ccc12 [Compound 8E, (1-Benzylpiperidin-4-yl)methyl (S)-2-hydroxy-2-(3-(1-((4-((((R)-2-hydroxy-2-(8-hydroxy-2-oxo-1,2-dihydroquinolin-5-yl)ethyl)amino)methyl)-3-methoxybenzoyl)glycyl)-1,2,3,6-tetrahydropyridin-4-yl)phenyl)-2-phenylacetate] | > 9.52 | 8.52 to 9.52
CN(CC(=O)N1CC=C(c2cccc([C@](O)(C(=O)OCC3CCN(Cc4ccccc4)CC3)c3ccccc3)c2)CC1)C(=O)c1ccc(CNC[C@H](O)c2ccc(O)c3[nH]c(=O)ccc23)cc1 [Compound 8F, (1-Benzylpiperidin-4-yl)methyl (S)-2-hydroxy-2-(3-(1-(N-(4-((((R)-2-hydroxy-2-(8-hydroxy-2-oxo-1,2-dihydroquinolin-5-yl)ethyl)amino)-methyl)benzoyl)-N-methylglycyl)-1,2,3,6-tetrahydropyridin-4-yl)phenyl)-2-phenylacetate] | 8.52 to 9.52 | 8.52 to 9.52
O=C(NCCCNC[C@H](O)c1ccc(O)c2[nH]c(=O)ccc12)c1cncc(-c2cccc([C@](O)(C(=O)OCC3CCN(Cc4ccccc4)CC3)c3ccccc3)c2)n1 [Compound 10, (1-Benzylpiperidin-4-yl)methyl (S)-2-hydroxy-2-(3-(6-((3-(((R)-2-hydroxy-2-(8-hydroxy-2-oxo-1,2-dihydroquinolin-5-yl)ethyl)amino)propyl)carbamoyl)pyrazin-2-yl)phenyl)-2-phenylacetate] | 8.52 to 9.52 | 8.52 to 9.52
